In patent US4695648A, “Novel arylacetic acid derivatives” (Pharmacia AB, priority 1984, dated 1987):

Target: T1, 15-hydroxy-prostaglandin dehydrogenase (PGDH) (Homo sapiens, UniProt P15428)
T1 construct: cell-free preparations of human placenta (containing PGDH); from tissue; host or cells: human placenta, cell-free preparation
T1 sequence (P15428 1-266): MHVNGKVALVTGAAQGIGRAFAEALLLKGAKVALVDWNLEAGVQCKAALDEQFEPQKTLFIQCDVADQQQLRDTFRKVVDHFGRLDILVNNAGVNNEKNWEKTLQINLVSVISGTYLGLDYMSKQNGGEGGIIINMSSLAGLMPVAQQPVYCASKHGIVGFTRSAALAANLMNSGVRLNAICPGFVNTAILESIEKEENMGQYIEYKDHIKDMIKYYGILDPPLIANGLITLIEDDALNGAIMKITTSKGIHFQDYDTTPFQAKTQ
Assay: Inhibition of 15-Hydroxy Prostaglandin Dehydrogenase (in vitro, cell-free preparations of human placenta, radioactive PGF2 degradation)
Assay type: biochemical
Conditions: 50% inhibition of degradation of radioactive PGF2 vs controls without inhibitor
Procedure: Radioactive prostaglandin F2 (PGF2 ) is incubated with cell-free preparations of human placenta (containing PGDH) as desribed by Hoult and Moore, Brithish Journal of Pharmacology Vol. 61 (1977), p. 615. After a suitable incubation period the prostaglandins are extracted and separated chromatographically. The amount of unchanged PGF2 is then compared with the amount of metabolites. The inhibitory effect is evaluated by measurement of the effect in the presence of different amounts of added inhibitor and determination of the concentration (IC50 ) at which 50% inhibition of degradation has been obtained as compared to controls run without inhibitor additions. Very good inhibitors are considered to be those that inhibit PGDH by 50% at a concentration of 10 μM or less. Good inhibitors are considered to be those that inhibit at a concentration of between 10 and 100 μM. Also where a compound has to be classified as less good this will often be compensated in actual practice by other valuable properties, such as for instance a low toxicity or particularly suitable pharmacokinetic properties.
The Table below sets forth IC50 values for a number of compounds according to the invention. For comparison the Table also gives the IC50 value of 5-phenylazo-2-hydroxybenzeneacetic acid which is a known effective PGDH inhibitor described in EP,-A-No. 21229.

Row | SMILES | IC50 [µM]
1 | O=C(O)Cc1cc(C(=O)c2ccccc2)ccc1O [Example 1, 5-Benzoyl-2-hydroxy-benzeneacetic acid] | 1.4
2 | Cc1cc(C)cc(C(=O)c2ccc(O)c(CC(=O)O)c2)c1 [Example 3, 5-(3,5-Dimethyl-benzoyl)-2-hydroxy-benzeneacetic acid] | 22
3 | O=C(O)Cc1cc(C=Cc2ccccc2)ccc1O [Example 4, 2-Hydroxy-5-(2-phenyl-1-ethenyl)-benzeneacetic acid] | 20
4 | O=C(O)Cc1cc(C(=O)c2ccc(Cl)cc2)ccc1O [Example 5, 2-Hydroxy-5-(4-chlorobenzoyl)-benzeneacetic acid] | 0.6
5 | N#Cc1ccc(C(=O)c2ccc(O)c(CC(=O)O)c2)cc1 [Example 6, 5-(4-Cyanobenzoyl)-2-hydroxy-benzeneacetic acid] | 0.74
6 | O=C(O)Cc1cc(C(=O)c2ccccc2)cc(Br)c1O [Example 9, 5-Benzoyl-3-bromo-2-hydroxy-benzeneacetic acid] | 42
7 | O=C(O)Cc1cc(C(=O)c2ccccc2F)ccc1O [Example 10, 5-(2-Fluorobenzoyl)-2-hydroxy-benzeneacetic acid] | 0.74
8 | O=C(O)Cc1cc(C(=O)C=Cc2ccc(C(=O)O)cc2)ccc1O [Example 17, 2-Hydroxy-5-(3-(4-carboxyphenyl)-1-oxo-2-propenyl)benzeneacetic acid] | 1.4
9 | O=C(O)Cc1cc(C(=O)c2ccc(F)cc2)ccc1O [Example 21, 5-(4-Fluorobenzoyl)-2-hydroxy-benzeneacetic acid] | 0.58
10 | CC(C)c1ccc(C=CC(=O)c2ccc(O)c(CC(=O)O)c2)cc1 [Example 29, 5-(3-(4-(1-Methyl-ethyl)-phenyl)-1-oxo-2-propenyl)-2-hydroxy-benzeneacetic acid] | 1.3

More lines, in order of falling IC50, values ahead:

Row | IC50 [µM] | SMILES
11 | 56 | O=C(O)Cc1cc(C(=O)Cc2ccccc2)ccc1O [Example 14, 5-(2-Phenylacetyl)-2-hydroxy-benzeneacetic acid]
12 | 12 | O=C(O)Cc1cc(N=Nc2ccccc2)ccc1O [5-phenylazo-2-hydroxybenzeneacetic acid, reference compound]
13 | 12 | O=C(O)Cc1cc(C(=O)C=Cc2ccccc2)ccc1O [Example 16, 5-(3-Phenyl-1-oxo-2-propenyl)-2-hydroxy-benzeneacetic acid]
14 | 6 | O=C(O)Cc1cc(C(=O)c2cccc(C(=O)O)c2)ccc1O [Example 18, 2-Hydroxy-5-(3-carboxybenzoyl)-benzeneacetic acid]
15 | 4.9 | COC(=O)Cc1cc(C(=O)c2ccc(F)cc2)ccc1O [Example 20, Methyl-5-(4-fluorobenzoyl)-2-hydroxy-benzeneacetate]
16 | 1.9 | COc1ccc(C=CC(=O)c2ccc(O)c(CC(=O)O)c2)cc1 [Example 30, 5-(3-(4-Methoxyphenyl)-1-oxo-2-propenyl)-2-hydroxybenzeneacetic acid]
17 | 1.7 | O=C(O)Cc1cc(C(=O)Cc2ccc(C(=O)O)cc2)ccc1O [Example 15, 2-Hydroxy-5-(2-(4-carboxyphenyl)-acetyl)-benzeneacetic acid]
18 | 1.3 | O=C(O)Cc1cc(C(=O)c2ccc(C(=O)O)cc2)ccc1O [Example 7, 2-Hydroxy-5-(4-carboxybenzoyl)-benzeneacetic acid]
19 | 1.3 | O=C(O)Cc1cc(C(=O)c2cccc(F)c2)ccc1O [Example 12, 5-(3-Fluorobenzoyl)-2-hydroxy-benzeneacetic acid]
20 | 0.63 | CC(=O)c1ccc(C(=O)c2ccc(O)c(CC(=O)O)c2)cc1 [Example 32, 5-(4-Acetylbenzoyl)-2-hydroxy-benzeneacetic acid]
21 | 0.4 | O=C(O)Cc1cc(C=Cc2ccc(C(=O)O)cc2)ccc1O [Example 33, 2-Hydroxy-5-(2-(4-carboxyphenyl)-1-ethenyl)-benzeneacetic acid]
22 | 0.38 | O=C(O)Cc1cc(C(=O)c2c(F)cccc2F)ccc1O [Example 25, 5-(2,6-Difluorobenzoyl)-2-hydroxy-benzeneacetic acid]
23 | 0.21 | O=C(O)Cc1cc(C(=O)c2ccc(Cl)cc2Cl)ccc1O [Example 11, 5-(2,4-Dichlorobenzoyl)-2-hydroxy-benzeneacetic acid]
